These results are taken from paper PMC6009966, “A novel proton transfer salt of 2-amino-6-sulfamoylbenzothiazole and its metal complexes: the evaluation of their inhibition effects on human cytosolic carbonic anhydrases” (Journal of Enzyme Inhibition and Medicinal Chemistry, 2017).

Type in all cases: biochemical
The target in assay [1] is T1, hCA II (Homo sapiens, UniProt P00918). The assay is described as follows: CO2 hydratase activity inhibition of hCA II (pH-stat method). The method, then:
(§1) Erythrocytes were purified from human blood. The blood samples were centrifuged at 1500 rpm for 20 min, and plasma was removed. Later, red cells were washed with isotonic solution (0.9% NaCl), and the erythrocytes were hemolyzed with 1.5 volumes of ice-cold water. Cell membranes were removed by centrifugation at 4 °C, 20000 rpm for 30 min. The pH of hemolysate was adjusted to 8.7 with solid TRIS (tris(hydroxymethyl)aminomethane). […] After extensive washing with a solution of 25.0 mM TRIS-HCl/22.0 mM Na2SO4 (pH 8.7), the hCA I and hCA II isoenzymes were eluted with the solution of 1.0 M NaCl/25.0 mM Na2HPO4 (pH 6.3) and 0.1 M NaCH3COO/0.5 M NaClO4 (pH 5.6), respectively. For quantitative protein determination, the Bradford method was used with bovine serum albumin as standard. Also, the purity control of the isoenzymes was performed with SDS-PAGE after the purification.
(§2) The enzyme unit (EU) is the enzyme amount that reduces the non-enzymatic reaction time by 50%. The activity of an enzyme unit was calculated by using the equation ((t0−tc)/tc), where t0 and tc are times for pH change of the non-enzymatic and enzymatic reactions, respectively.
(§3) Regression analysis graphs were drawn by plotting the percent enzyme activity versus inhibitor concentration and IC50 values were calculated.

The target of assay [2] is T2, hCA I (Homo sapiens, UniProt P00915). The assay is described as follows: CO2 hydratase activity inhibition of hCA I (pH-stat method). The method, then:
as §1, §2, §3

Assay [3] deals with T1, hCA II. The assay is described as follows: Esterase activity inhibition of hCA II (4-nitrophenylacetate, 348 nm). The method, then:
as §1
(§4) The enzymatic reaction, in a total volume of 3.0 mL, contained 1.4 mL of 0.05 M TRIS–SO4 buffer (pH 7.4), 1.0 mL of 3.0 mM 4-nitrophenylacetate, 0.5 mL H2O, and 0.1 mL enzyme solution. A reference measurement was obtained by preparing the same cuvette without enzyme solution.
as §3
(§5) Enzyme activity was also measured in the presence of the same substrate concentrations but in the absence of any inhibitor to determine the Vmax (Supplementary Figure S3).

The target of assay [4] is T2, hCA I. The assay can be described thus: Esterase activity inhibition of hCA I (4-nitrophenylacetate, 348 nm). The method, then:
as §1, §4, §3, §5

Where [5] appears, read: CO2 hydratase activity, 0 °C, veronal buffer pH 8.15, mean ± standard error, three assays.
[6] abbreviates: 4-nitrophenylacetate, 25 °C, TRIS-SO4 pH 7.4, mean ± standard error, three assays.
Where [7] appears, read: determined by esterase activity measurements, Lineweaver-Burk plot, mean ± standard error, three assays.

T2 sequence (P00915 whole entry): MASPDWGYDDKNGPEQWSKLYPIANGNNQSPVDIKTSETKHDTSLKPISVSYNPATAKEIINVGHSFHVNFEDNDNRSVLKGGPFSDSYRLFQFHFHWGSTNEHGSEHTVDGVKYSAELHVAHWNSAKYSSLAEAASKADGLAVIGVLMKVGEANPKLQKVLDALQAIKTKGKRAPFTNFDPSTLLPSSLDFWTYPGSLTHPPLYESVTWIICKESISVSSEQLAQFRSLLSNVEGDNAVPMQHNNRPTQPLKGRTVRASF

The IC50 is the concentration at which inhibition is half-maximal. Read a low IC50 as greater potency. The Ki is the dissociation constant of the complex between target and ligand, obtained from inhibition or displacement. Regarding `Nc1nc2ccc(S(N)(=O)=O)cc2s1.O=C(O)c1cccc(C(=O)O)n1` [Compound 1, (SMHABT)^+(HDPC)^−], the half-maximal inhibitory concentration (IC50) in assay [1] (setting [5]) came to 1998 ± 9 nM; in assay [2] (setting [5]), 4075 ± 18 nM; in assay [3] (setting [6]), 133 ± 15 nM; in assay [4] (setting [6]) it was 258 ± 17 nM. Further, the Ki worked out at 85 ± 19 nM in assay [3] (setting [7]) and 149 ± 17 nM in assay [4] (setting [7]).

On to `O=C(O)c1cccc(C(=O)O)n1` [Compound H2DPC, 2,6-pyridinedicarboxylic acid, reference compound], for which the “Inhibition of hydratase activity of hCA II (in words)” value in assay [1] is reported as “have not inhibited”. Moreover, the “Hydratase IC50 hCA II” value in assay [1] (setting [5]) is on record as “No inhibition”. In assay [2], the “Inhibition of hydratase activity of hCA I (in words)” value was “have not inhibited”. The “Hydratase IC50 hCA I” value in assay [2] (setting [5]) was “No inhibition”. Besides, in assay [3], the “Inhibition of esterase activity of hCA II (in words)” value is “have not inhibited”. Moreover, in assay [3] (setting [6]), the “Esterase IC50 hCA II” value is listed as “No inhibition”. The “Ki hCA II” value in assay [3] (setting [7]) is “No inhibition”. Besides, in assay [4], the “Inhibition of esterase activity of hCA I (in words)” value was “have not inhibited”. Besides, the “Esterase IC50 hCA I” value in assay [4] (setting [6]) was “No inhibition”. For the same compound, the “Ki hCA I” value in assay [4] (setting [7]) was “No inhibition”.

With `Nc1nc2ccc(S(N)(=O)=O)cc2s1` [SMABT, 2-amino-6-sulfamoylbenzothiazole], the IC50 came out at 3876 ± 14 nM in assay [1] (setting [5]), 6348 ± 12 nM in assay [2] (setting [5]), 322 ± 6 nM in assay [3] (setting [6]) and 567 ± 8 nM in assay [4] (setting [6]). For the same compound, the Ki in assay [3] (setting [7]) was 162 ± 10 nM; in assay [4] (setting [7]), 306 ± 4 nM.

Turning to `NC(=S)Nc1ccc(S(N)(=O)=O)cc1` [TBS, 4-thioureidobenzenesulfonamide, reference compound], the IC50 in assay [1] (setting [5]) was determined as 4334 ± 21 nM; in assay [2] (setting [5]), 7846 ± 5 nM; in assay [3] (setting [6]), 234 ± 6 nM; in assay [4] (setting [6]) it was 499 ± 10 nM. Besides, the inhibition constant Ki in assay [3] (setting [7]) worked out at 114 ± 3 nM; in assay [4] (setting [7]) it was 268 ± 7 nM.

(SMHABT)2[Co(DPC)2].5H2O [Compound 3]: the IC50 in assay [1] (setting [5]) turned out to be 703 ± 14 nM; in assay [2] (setting [5]) it was 1601 ± 8 nM; in assay [3] (setting [6]), 41 ± 3 nM; in assay [4] (setting [6]), 66 ± 4 nM. Further, the Ki in assay [3] (setting [7]) stood at 13 ± 6 nM; in assay [4] (setting [7]), 28 ± 2 nM. Moreover, in assay [3] (esterase activity, hCA II versus hCA I), the “hCA II inhibited stronger than hCA I (esterase activity)” value came to 1.5 fold.

Regarding (SMHABT)2[Ni(DPC)2].5H2O [Compound 4], the IC50 in assay [1] (setting [5]) worked out at 212 ± 6 nM; in assay [2] (setting [5]) it was 397 ± 11 nM; in assay [3] (setting [6]) it was 54 ± 1 nM; in assay [4] (setting [6]), 136 ± 3 nM. For the same compound, the Ki in assay [3] (setting [7]) was determined as 21 ± 4 nM; in assay [4] (setting [7]), 43 ± 12 nM.

Regarding (SMHABT)[Fe(DPC)2].4H2O [Compound 2], the IC50 stood at 1010 ± 13 nM in assay [1] (setting [5]), 2533 ± 23 nM in assay [2] (setting [5]), 189 ± 5 nM in assay [3] (setting [6]) and 409 ± 21 nM in assay [4] (setting [6]). The Ki in assay [3] (setting [7]) was 101 ± 5 nM; in assay [4] (setting [7]), 192 ± 19 nM.
